Measured values reported in publication PMC5874699, “Antimicrobial and Antibiofilm Activity of UP-5, an Ultrashort Antimicrobial Peptide Designed Using Only Arginine and Biphenylalanine” (Pharmaceuticals, 2018).

Tests used:
[1] = system: P. aeruginosa (ATCC BAA-2114); test: Broth microdilution checkerboard, UP-5 with antibiotics; assay type: cell-based, Pseudomonas aeruginosa; conditions: for Effect of the combination according to FIC value: P. aeruginosa (ATCC 2114 as printed); for Effect of the combination according to FIC value / FIC Index: antibiotic-UP-5 combination; for Antibiotics Reduction in MIC (%) / Antibiotics MIC in Combination / FIC Index: P. auroginosa ATCC BAA-2114; for Antibiotics Reduction in MIC (%): antibiotic MIC in combination with UP-5 compared to MIC alone; for Antibiotics MIC in Combination: antibiotic in combination with UP-5, checkerboard, triplicate; for FIC Index: checkerboard
Description: (§1) All bacterial susceptibility, biofilm, and synergistic assays of peptides, antibiotics, and peptides-antibiotics combinations used bacterial strains obtained from the American Type Tissue Culture Collection (ATCC, Manassas, VA, USA) that states the mechanism of resistance for each strain according to ATCC number. Gram-positive bacteria were represented by five strains, the wild type strain Staphylococcus aureus (ATCC 29213) and methicillin-resistant S. aureus (MRSA) (ATCC 33591) in addition to clinically isolated strains S. aureus (ATCC BAA-41& 43300) and Enterococcus faecalis (ATCC BAA-2316). The Gram-negative bacteria strains were represented by wild type strains of Escherichia coli (ATCC 25922 & 35218) and Pseudomonas aeruginosa (ATCC 27853) as well as the clinically isolated multidrug-resistant strain P. aeruginosa (ATCC BAA-2114). The bacteria were cultured onto Muller Hinton Agar (Scharlab, S.L, Barcelona, Spain). Mueller Hinton Broth (Oxoid Ltd., Basingstoke, UK) was used to prepare all bacterial suspensions and to dissolve the peptides and the antibiotics. The assay was performed in sterile 96-well polypropylene microtiter plates.
(§2) According to the broth microdilution checkerboard technique, the MIC and MBC values of peptide-antibiotics combinations against wild type and multidrug resistant bacterial strains were determined. Serial concentrations of peptide and each antibiotic were prepared in the range of 0.005–100 μM. In each well of a 96-well microtiter plate, 25 μL of each peptide concentration were added to 25 μL of each antibiotic concentration which is followed by adding 50 μL of diluted bacterial suspension (10^6 CFU/mL) to each well. The prepared concentrations of peptide and each antibiotic were arranged into rows and columns, respectively, in a 96-well microtiter plate according the checkerboard technique. Then as described previously (see Section 2.4.1), the procedure was followed. All MIC and MBC determinations of all assays were made in triplicate.
(§3) The fractional inhibitory concentration (FIC) is defined as the inhibitory concentration of the antimicrobial combination divided by that of the single antimicrobial component. To calculate FIC index for peptide-antibiotic combinations, the following equation was used:(1) FIC index=MIC of drug X in combination/MIC of drug X alone+MIC of drug Y in combination/MIC of drug Y alone
(§4) The FIC indices were interpreted as follows: ≤0.5: synergistic activity, 0.5–1: additive activity, 1–4 indifferent, >4: antagonism. Interpretation and assessment of the FIC indices were performed according to the broth microdilution checkerboard technique.

[2] = system: P. aeruginosa (ATCC BAA-2114); assay type: cell-based, Pseudomonas aeruginosa; conditions: P. auroginosa ATCC BAA-2114, antibiotic alone, triplicate; for Antibiotics MBC Alone: 99.9% killing; for Antibiotics MIC Alone: microbroth dilution
Description: as §1
(§5) All bacterial susceptibility assays were conducted according to the microbroth dilution method outlined by the Clinical and Laboratory Standards Institute (CLSI) guidelines.
(§6) Briefly, pre-sterilized MHB was used as a growth medium for organisms obtained from stock media with glycerol. Bacterial cells were grown overnight in MHB and diluted to 10^6 CFU/mL in the same medium prior to use. For peptide, serial concentrations in the range of 0.5–100 μM were prepared. Then, 50 μL of each peptide concentration and 50 µL of diluted bacterial suspension were added to each well of a 96-well microtiter plate. Peptide solutions were prepared by dissolving the peptide in sterile MHB. Then, the plates were incubated overnight in a humidified atmosphere, and at 37 °C. Bacterial growth was determined by measuring the optical density (OD) at λ = 600 nm using an ELISA plate reader (Epoch, BioTek, Winooski, VT, USA) and the minimum inhibitory concentration (MIC) was determined.
(§7) As described in the previous section, the MIC and MBC values of antibiotics employed in this study were determined against subjected bacterial strains via preparing different concentrations of each antibiotic.

S. aureus (ATCC 43300) [3] = assay type: cell-based, Staphylococcus aureus; conditions: S. aureus ATCC 43300, antibiotic alone, triplicate; for Antibiotics MBC Alone: 99.9% killing; for Antibiotics MIC Alone: microbroth dilution
Description: as §1, §5, §6, §7

S. aureus (ATCC BAA-41) [4] = assay type: cell-based, Staphylococcus aureus; conditions: S. aureus ATCC BAA-41, antibiotic alone, triplicate; for Antibiotics MBC Alone: 99.9% killing; for Antibiotics MIC Alone: microbroth dilution
Description: as §1, §5, §6, §7

[5] = system: methicillin-resistant S. aureus (MRSA) (ATCC 33591); test: MIC/MBC, microbroth dilution (CLSI); assay type: cell-based, Staphylococcus aureus; conditions: S. aureus ATCC 33591, antibiotic alone, triplicate; for Antibiotics MBC Alone: 99.9% killing; for Antibiotics MIC Alone: microbroth dilution
Description: as §1, §5, §6, §7

[6] = system: Staphylococcus aureus (ATCC 29213); assay type: cell-based; conditions: S. aureus ATCC 29213, antibiotic alone, triplicate; for Antibiotics MBC Alone: 99.9% killing; for Antibiotics MIC Alone: microbroth dilution
Description: as §1, §5, §6, §7

S. aureus (ATCC 43300) [7] = test: Broth microdilution checkerboard, UP-5 with antibiotics; assay type: cell-based, Staphylococcus aureus; conditions: for Effect of the combination according to FIC value: S. aureus (ATCC 43300); for Effect of the combination according to FIC value / FIC Index: antibiotic-UP-5 combination; for Antibiotics MIC in Combination: antibiotic in combination with UP-5, checkerboard, triplicate; for FIC Index: checkerboard
Description: as §1, §2, §3, §4

S. aureus (ATCC 29213) = test: as above; assay type: cell-based, Staphylococcus aureus; conditions: for Antibiotics Reduction in MIC (%) / Antibiotics MIC in Combination / FIC Index: S. aureus ATCC 29213; for Antibiotics Reduction in MIC (%): antibiotic MIC in combination with UP-5 compared to MIC alone; for Antibiotics MIC in Combination: antibiotic in combination with UP-5, checkerboard, triplicate; for Effect of the combination according to FIC value: S. aureus (ATCC 29213); for Effect of the combination according to FIC value / FIC Index: antibiotic-UP-5 combination; for FIC Index: checkerboard
Description: as §1, §2, §3, §4

S. aureus (ATCC 33591) = test: as above; assay type: cell-based, Staphylococcus aureus; conditions: for Effect of the combination according to FIC value: S. aureus (ATCC 33591); for Effect of the combination according to FIC value / FIC Index: antibiotic-UP-5 combination; for Antibiotics Reduction in MIC (%) / Antibiotics MIC in Combination / FIC Index: S. aureus ATCC 33591; for Antibiotics Reduction in MIC (%): antibiotic MIC in combination with UP-5 compared to MIC alone; for Antibiotics MIC in Combination: antibiotic in combination with UP-5, checkerboard, triplicate; for FIC Index: checkerboard
Description: as §1, §2, §3, §4

S. aureus (ATCC BAA-41) [8] = test: as above; assay type: cell-based, Staphylococcus aureus; conditions: for Antibiotics MIC in Combination / Antibiotics Reduction in MIC (%) / FIC Index: S. aureus ATCC BAA-41; for Antibiotics MIC in Combination: antibiotic in combination with UP-5, checkerboard, triplicate; for Effect of the combination according to FIC value: S. aureus (ATCC BAA-41); for Effect of the combination according to FIC value / FIC Index: antibiotic-UP-5 combination; for Antibiotics Reduction in MIC (%): antibiotic MIC in combination with UP-5 compared to MIC alone; for FIC Index: checkerboard
Description: as §1, §2, §3, §4

| SMILES | Effect of the combination according to FIC value [1] | Antibiotics Reduction in MIC (%) [1] | Antibiotics MIC in Combination [1] | Antibiotics MBC Alone [2] | Antibiotics MIC Alone [2] | Antibiotics MBC Alone (S. aureus (ATCC 43300) [3]) | Antibiotics MIC Alone (S. aureus (ATCC 43300) [3]) | Antibiotics MBC Alone (S. aureus (ATCC BAA-41) [4]) | Antibiotics MIC Alone (S. aureus (ATCC BAA-41) [4]) | Antibiotics MBC Alone [5] | Antibiotics MIC Alone [5] | Antibiotics MBC Alone [6] | Antibiotics MIC Alone [6] | Effect of the combination according to FIC value (S. aureus (ATCC 43300) [7]) | Antibiotics MIC in Combination (S. aureus (ATCC 43300) [7]; S. aureus ATCC 43300) | Antibiotics Reduction in MIC (%) (S. aureus (ATCC 29213)) | Antibiotics MIC in Combination (S. aureus (ATCC 29213)) | Effect of the combination according to FIC value (S. aureus (ATCC 33591)) | Antibiotics Reduction in MIC (%) (S. aureus (ATCC 33591)) | Antibiotics MIC in Combination (S. aureus (ATCC BAA-41) [8]) | other results |
| --- | --- | --- | --- | --- | --- | --- | --- | --- | --- | --- | --- | --- | --- | --- | --- | --- | --- | --- | --- | --- | --- |
| CC1(C)S[C@@H]2[C@H](NC(=O)[C@H](N)c3ccccc3)C(=O)N2[C@H]1C(=O)O [Ampicillin, ampicillin] | additive (0.5–1: additive activity) | >50% | 250 µM | > 500 µM | > 500 µM | 20 µM | 20 µM | 40 µM | 40 µM | 85 µM | 85 µM | 2.5 µM | 2.5 µM | additive (0.5–1: additive activity) | 2.5 µM | <50% | 2.5 µM | synergistic (≤0.5: synergistic activity) | 85.3% | 20 µM |  |
| O=C(N[C@H](CO)[C@H](O)c1ccc([N+](=O)[O-])cc1)C(Cl)Cl [Chloramphenicol, chloramphenicol] | synergistic (≤0.5: synergistic activity) | 93.7% | 12.5 µM | 325 µM | 200 µM | 20 µM | 15 µM | 30 µM | 25 µM | 150 µM | 130 µM | 30 µM | 20 µM | additive (0.5–1: additive activity) | 7.5 µM |  | 10 µM | additive (0.5–1: additive activity) | 50% | 7.5 µM | FIC Index [1]: 0.24; FIC Index (S. aureus (ATCC 43300) [7]; S. aureus ATCC 43300): 1; Effect of the combination according to FIC value (S. aureus (ATCC 29213)): additive (0.5–1: additive activity); FIC Index (S. aureus (ATCC 29213)): 0.75; Antibiotics MIC in Combination (S. aureus (ATCC 33591)): 65 µM; FIC Index (S. aureus (ATCC 33591)): 1; Effect of the combination according to FIC value (S. aureus (ATCC BAA-41) [8]): additive (0.5–1: additive activity); Antibiotics Reduction in MIC (%) (S. aureus (ATCC BAA-41) [8]): 70%; FIC Index (S. aureus (ATCC BAA-41) [8]): 0.8 |
| CC[C@H]1OC(=O)[C@H](C)[C@@H](O[C@H]2C[C@@](C)(OC)[C@@H](O)[C@H](C)O2)[C@H](C)[C@@H](O[C@@H]2O[C@H](C)C[C@H](N(C)C)[C@H]2O)[C@](C)(O)C[C@@H](C)C(=O)[C@H](C)[C@@H](O)[C@]1(C)O [Erythromycin, erythromycin] | additive (0.5–1: additive activity) | 60% | 50 µM | 150 µM |  | 150 µM | 100 µM | 400 µM | 350 µM | 10 µM | 8 µM | 1.5 µM | 0.5 µM |  | 100 µM | <50% | 0.5 µM |  | <50% |  | Antibiotics Reduction in MIC (%) (S. aureus (ATCC 43300) [7]; S. aureus ATCC 43300, antibiotic MIC in combination with UP-5 compared to MIC alone): <50%; Antibiotics MIC in Combination (S. aureus (ATCC 33591)): 8 µM; Antibiotics Reduction in MIC (%) (S. aureus (ATCC BAA-41) [8]): 64.3% |
| C[C@H]1COc2c(N3CCN(C)CC3)c(F)cc3c(=O)c(C(=O)O)cn1c23 [Levofloxacin, levofloxacin] | additive (0.5–1: additive activity) | 58.3% | 5 µM | 12 µM | 12 µM | 20 µM | 20 µM | 10 µM | 10 µM | 10 µM | 10 µM | 0.5 µM | 0.5 µM | synergistic (≤0.5: synergistic activity) | 5 µM | 90% | 0.05 µM | synergistic (≤0.5: synergistic activity) | 87.5% | 10 µM | FIC Index [1]: 0.78; FIC Index (S. aureus (ATCC 43300) [7]; S. aureus ATCC 43300): 0.25; Effect of the combination according to FIC value (S. aureus (ATCC 29213)): synergistic (≤0.5: synergistic activity); Antibiotics Reduction in MIC (%) (S. aureus (ATCC 29213); listed as levofloxacin): 87.5%; FIC Index (S. aureus (ATCC 29213)): 0.11; Antibiotics Reduction in MIC (%) (S. aureus (ATCC 33591); listed as levofloxacin): 90%; Antibiotics MIC in Combination (S. aureus (ATCC 33591)): 1.25 µM; FIC Index (S. aureus (ATCC 33591)): 0.13; Effect of the combination according to FIC value (S. aureus (ATCC BAA-41) [8]): indifferent (1–4 indifferent); Antibiotics Reduction in MIC (%) (S. aureus (ATCC BAA-41) [8]): <50%; FIC Index (S. aureus (ATCC BAA-41) [8]): 2 |
